Results from patent US9751862B2, “Pesticidally active substituted pyridyl carboxamides” (Syngenta Participations AG, priority 2014, dated 2017).
Where two headings read alike, the source gives them in different places.

Key:
Format in all cases: in vivo
[1] = tested on: Myzus persicae (Green Peach Aphid); test: Activity against Myzus persicae (mixed population, feeding/residual contact activity, preventive), sunflower leaf discs; settings: foliar, 144 h, read-out: activity (mortality)
Procedure: Sunflower leaf discs were placed on agar in a 24-well microtiter plate and sprayed with test solutions. After drying, the leaf discs were infested with an aphid population of mixed ages. After an incubation period of 6 days, samples were checked for mortality and special effects (e.g. phytotoxicity).

[2] = tested on: Myzus persicae (Green Peach Aphid); test: Activity against Myzus persicae (mixed population, systemic/feeding activity, curative), pea seedlings; settings: 144 h, pea seedling roots in test solution, 6 days after introduction
Description: Example B2: Activity Against Myzus persicae (Green Peach Aphid) (Mixed Population, Systemic/Feeding Activity, Curative)
Pea seedlings, infested with an aphid population of mixed ages, were placed with the roots directly in the test solutions. 6 days after introduction, samples were checked for mortality and special effects on the plant.

[3] = tested on: Bemisia tabaci; test: Activity against Bemisia tabaci (adults on cotton, contact, preventative); settings: foliar, 168 h, sprayed cotton leaf discs, adult white flies, 7 DAT
Procedure: Example B3: Activity Against Bemisia tabaci, (Adults on Cotton, Contact, Preventative)
Cotton leaf discs are placed on agar in a 24-well microtiter plate and sprayed with test solutions. After drying, the leaf discs are infested with adult white flies. After an incubation period of 7 DAT, samples are checked for mortality and special effects (e.g. phytotoxicity).

[4] = tested on: Frankliniella occidentalis (Western Flower Thrips); test: Activity against Frankliniella occidentalis (mixed population, contact/feeding), bean plants; settings: 200 ppm; sprayed bean plants; 14 days after infestation
Procedure: Example B4: Activity Against Frankliniella occidentalis (Western Flower Thrips) (Mixed Population, Contact/Feeding)
Bean plants were treated with diluted test solutions in a spray chamber. After drying, plants were infested with a thrips population of mixed ages. 14 days after the infestation, samples were checked for damage reduction compare to the non treated samples.

[5] = 200 ppm, sprayed sunflower leaf discs, 6 days incubation

Cc1cc(CC#N)cnc1-n1ncc(C(=O)N(C)c2cccnc2)c1C [Compound 1.001, 1-[5-(cyanomethyl)-3-methyl-2-pyridyl]-N,5-dimethyl-N-(3-pyridyl)pyrazole-4-carboxamide]
mortality at 200 ppm [1, 5]: ≥ 80%
mortality at 24 ppm [2]: > 80%
mortality at 200 ppm [3]: > 80%

Cc1cc(C2(C#N)CC2)cnc1-n1ncc(C(=O)N(C)c2cccnc2)c1C [Compound 1.002, 1-[5-(1-cyanocyclopropyl)-3-methyl-2-pyridyl]-N,5-dimethyl-N-(3-pyridyl)pyrazole-4-carboxamide]
mortality at 200 ppm [1, 5]: ≥ 80%
mortality at 24 ppm [2]: > 80%

Cc1cc(C(C)C#N)cnc1-n1ncc(C(=O)N(C)c2cccnc2)c1C (stereo not shown) [Compound 1.003, 1-[5-(1-cyanoethyl)-3-methyl-2-pyridyl]-N,5-dimethyl-N-(3-pyridyl)pyrazole-4-carboxamide]
mortality at 200 ppm [1, 5]: ≥ 80%
activity (damage reduction compared to non treated samples) [4]: over 80%

Cc1cc(C(C)(C)C#N)cnc1-n1ncc(C(=O)N(C)c2cccnc2)c1C [Compound 1.004, 1-[5-(1-cyano-1-methyl-ethyl)-3-methyl-2-pyridyl]-N,5-dimethyl-N-(3-pyridyl)pyrazole-4-carboxamide]
mortality at 200 ppm [1, 5]: ≥ 80%
mortality at 24 ppm [2]: > 80%

Cc1cc(/C(C#N)=N/O)cnc1-n1ncc(C(=O)N(C)c2cccnc2)c1C [Compound 1.007, 1-[5-[(Z)-C-cyano-N-hydroxy-carbonimidoyl]-3-methyl-2-pyridyl]-N,5-dimethyl-N-(3-pyridyl)pyrazole-4-carboxamide]
mortality at 200 ppm [1, 5]: ≥ 80%
mortality at 24 ppm [2]: > 80%

CCO/N=C(\C#N)c1cnc(-n2ncc(C(=O)N(C)c3cccnc3)c2C)c(C)c1 [Compound 1.008, (3E/Z)-N-ethoxy-5-methyl-6-[5-methyl-4-[methyl(3-pyridyl)carbamoyl]pyrazol-1-yl]pyridine-3-carboximidoyl cyanide]
mortality at 200 ppm [1]: ≥ 80%

CCOC(=O)C(CC)c1cnc(-n2ncc(C(=O)N(C)c3cccnc3)c2C)c(C)c1 (stereo not shown) [Compound 1.009]
mortality at 200 ppm [1, 5]: ≥ 80%
